Laboratory results: ChEMBL document CHEMBL5042530, “Discovery of Novel Pyridine-Dimethyl-Phenyl-DAPY Hybrids by Molecular Fusing of Methyl-Pyrimidine-DAPYs and Difluoro-Pyridinyl-DAPYs: Improving the Druggability toward High Inhibitory Activity, Solubility, Safety, and PK” (J Med Chem, 2022)

How the values were obtained:
[1] = system: Human immunodeficiency virus 1; experiment: Antiviral activity against wild type HIV-1 IIIB infected in human MT4 cells assessed as protection against virus-induced cytotoxicity incubated for 5 days by MTT assay; format: functional, organism-based; conditions: Human immunodeficiency virus 1, IIIB, MT4, 120 h
[2] = Cytotoxicity against human MT4 cells assessed as reduction in cell viability measured after 5 days by MTT assay; format: toxicity, cell-based; conditions: time 5 day
[3] = Selectivity index, ratio of CC50 for cytotoxicity against human MT4 cells to EC50 for antiviral activity against HIV-1 IIIB infected in human MT4 cells; format: toxicity, cell-based; conditions: read-out: Ratio CC50/EC50
[4] = system: Human immunodeficiency virus 1; experiment: Antiviral activity against HIV-1 harboring RT L100I mutant infected in human MT4 cells assessed as protection against virus-induced cytotoxicity incubated for 5 days by MTT assay; format: functional, organism-based; conditions: Human immunodeficiency virus 1, MT4, 120 h
[5] = system: Human immunodeficiency virus 1; experiment: Antiviral activity against HIV-1 harboring K103N mutant infected in human MT4 cells assessed as protection against virus-induced cytotoxicity incubated for 5 days by MTT assay; format: functional, organism-based; conditions: Human immunodeficiency virus 1, MT4, 120 h
[6] = system: Human immunodeficiency virus 1; experiment: Antiviral activity against HIV-1 harboring Y181C mutant infected in human MT4 cells assessed as protection against virus-induced cytotoxicity incubated for 5 days by MTT assay; format: functional, organism-based; conditions: Human immunodeficiency virus 1, MT4, 120 h
[7] = system: Human immunodeficiency virus 1; experiment: Antiviral activity against HIV-1 harboring Y188L mutant infected in human MT4 cells assessed as protection against virus-induced cytotoxicity incubated for 5 days by MTT assay; format: functional, organism-based; conditions: Human immunodeficiency virus 1, MT4, 120 h
[8] = system: Human immunodeficiency virus 1; experiment: Antiviral activity against HIV-1 harboring E138K mutant infected in human MT4 cells assessed as protection against virus-induced cytotoxicity incubated for 5 days by MTT assay; format: functional, organism-based; conditions: Human immunodeficiency virus 1, MT4, 120 h
[9] = molecular target: Human immunodeficiency virus type 1 reverse transcriptase (Human immunodeficiency virus 1, UniProt Q72547); experiment: Inhibition of recombinant wild type p66/p51 HIV1 reverse transcriptase incubated for 40 mins by picogreen dye-based spectrofluorometric analysis
[10] = system: Human immunodeficiency virus 1; experiment: Antiviral activity against HIV-1 harboring F227L/V106A double mutant infected in human MT4 cells assessed as protection against virus-induced cytotoxicity incubated for 5 days by MTT assay; format: functional, organism-based; conditions: Human immunodeficiency virus 1, MT4, 120 h
[11] = system: Human immunodeficiency virus 1; experiment: Antiviral activity against HIV-1 harboring RES056 mutant infected in human MT4 cells assessed as protection against virus-induced cytotoxicity incubated for 5 days by MTT assay; format: functional, organism-based; conditions: Human immunodeficiency virus 1, MT4, 120 h

Row | Compound | EC50 [1] | CC50 at 120 h [2] | selectivity ratio [3] | EC50 [4] | EC50 [5] | EC50 [6] | EC50 [7] | EC50 [8] | IC50 [9] | EC50 [10] | EC50 [11]
1 | Cc1cnc(Nc2ccc(C#N)cc2)nc1Nc1c(F)cc(-c2cccnc2)cc1F | 14 nM | 1100 nM | 80 | > 1090 nM | 111 nM | > 1090 nM | > 1090 nM | 59 nM | 197 nM | – | –
2 | Cc1cc(-c2cc(C)c(Nc3ccnc(Nc4ccc(C#N)cc4)n3)c(C)c2)ccn1 | 1.7 nM | 4900 nM | 2880 | 44 nM | 5.9 nM | 17 nM | 229 nM | 11 nM | 35.7 nM | 562 nM | 225 nM
3 | Cc1cc(-c2ccc3cc[nH]c3c2)cc(C)c1Nc1ccnc(Nc2ccc(C#N)cc2)n1 | 21 nM | 5800 nM | 275 | 577 nM | 209 nM | 497 nM | – | 139 nM | 53.4 nM | – | –
4 | Cc1cc(-c2cccs2)cc(C)c1Nc1ccnc(Nc2ccc(C#N)cc2)n1 | 3.5 nM | 10000 nM | 2850 | 52 nM | 13 nM | 43 nM | 232 nM | 15 nM | 29 nM | 847 nM | 853 nM
5 | Cc1ccc(-c2cc(C)c(Nc3ccnc(Nc4ccc(C#N)cc4)n3)c(C)c2)s1 | 11 nM | 28000 nM | 2570 | 249 nM | 57 nM | 179 nM | 1280 nM | 47 nM | 43.8 nM | – | –
6 | Cc1cc(-c2cnc(C(F)(F)F)nc2)cc(C)c1Nc1ccnc(Nc2ccc(C#N)cc2)n1 | 5.2 nM | 4900 nM | 951 | 98 nM | 8.4 nM | 29.8 nM | 1260 nM | 37 nM | 64 nM | – | 429 nM
7 | Cc1ncc(-c2cc(C)c(Nc3ccnc(Nc4ccc(C#N)cc4)n3)c(C)c2)cn1 | 1.6 nM | 3900 nM | 2440 | 68 nM | 7.8 nM | 23 nM | – | 24 nM | 46.7 nM | – | 641 nM
8 | Cc1cnc(Nc2ccc(C#N)cc2)nc1Nc1c(F)cc(-c2ccc(C#N)nc2)cc1F | 1.6 nM | 62000 nM | 37500 | 52 nM | 11 nM | 35 nM | 2380 nM | 8.5 nM | 22 nM | – | –
9 | Cc1cc(-c2cc3ccccc3s2)cc(C)c1Nc1ccnc(Nc2ccc(C#N)cc2)n1 | 36 nM | 138000 nM | 3780 | 713 nM | 170 nM | 431 nM | 2820 nM | 206 nM | 61.5 nM | 206 nM | –
10 | Cc1cc(-c2ccnc3ccccc23)cc(C)c1Nc1ccnc(Nc2ccc(C#N)cc2)n1 | 5.7 nM | 3500 nM | 618 | 75 nM | 20 nM | 30 nM | 1340 nM | 36 nM | 40.7 nM | 1670 nM | 274 nM
11 | Cc1cnc(Nc2ccc(C#N)cc2)nc1Nc1c(F)cc(-c2ccncc2)cc1F | – | – | – | 35 nM | 5.4 nM | 22 nM | 258 nM | 9.2 nM | 12 nM | – | –
12 | Cc1cc(-c2cccc3cc[nH]c23)cc(C)c1Nc1ccnc(Nc2ccc(C#N)cc2)n1 | 23 nM | 1000 nM | 44 | – | 271 nM | – | – | 124 nM | 60.5 nM | – | –
13 | Cc1cc(C#N)cc(C)c1Oc1nc(Nc2ccc(C#N)cc2)nc(N)c1Br [ETRAVIRINE] | – | > 4600 nM | – | 44.7 nM | – | – | – | – | – | 31 nM | 101 nM
14 | Cc1cnc(Nc2ccc(C#N)cc2)nc1Nc1c(F)cc(-c2ccnc(F)c2)cc1F | 3.7 nM | 167000 nM | 45200 | 105 nM | 20.9 nM | 74.5 nM | > 2000 nM | 17.9 nM | 36 nM | – | –
15 | Cc1cnc(Nc2ccc(C#N)cc2)nc1Nc1c(F)cc(-c2cccs2)cc1F | 6 nM | 8000 nM | 1330 | 176 nM | 51 nM | 241 nM | 980 nM | 12 nM | 12 nM | – | –
16 | Cc1cnc(Nc2ccc(C#N)cc2)nc1Nc1c(F)cc(-c2cc(F)nc(F)c2)cc1F | 11 nM | 103000 nM | 9570 | 1730 nM | 117 nM | 285 nM | > 2000 nM | 66 nM | 55 nM | – | –
17 | Cc1cc(-c2cncnc2)cc(C)c1Nc1ccnc(Nc2ccc(C#N)cc2)n1 | 1.7 nM | 6800 nM | 4020 | 113 nM | 10 nM | 48 nM | – | 36 nM | 343 nM | – | 588 nM
18 | Cc1cnc(Nc2ccc(C#N)cc2)nc1Nc1c(F)cc(-c2cncnc2)cc1F | 16 nM | 900 nM | 59 | > 916 nM | 88 nM | > 916 nM | > 916 nM | 87 nM | 280 nM | – | –
19 | Cc1cnc(Nc2ccc(C#N)cc2)nc1Nc1c(F)cc(-c2ccoc2)cc1F | 5.7 nM | 4200 nM | 742 | 228 nM | 48 nM | 150 nM | 1340 nM | 12.3 nM | 8.4 nM | – | –
20 | O=C1Nc2ccc(Cl)cc2[C@@](C#CC2CC2)(C(F)(F)F)O1 [EFAVIRENZ] | – | > 6330 nM | – | 10.7 nM | – | – | – | – | – | 410 nM | 560 nM
21 | Cc1ccnc2c1NC(=O)c1cccnc1N2C1CC1 [NEVIRAPINE] | – | > 15000 nM | – | – | – | – | > 2000 nM | – | – | – | –
22 | Cc1cc(-c2cc(F)nc(F)c2)cc(C)c1Nc1ccnc(Nc2ccc(C#N)cc2)n1 | 3.6 nM | 6300 nM | 1740 | 91 nM | 13 nM | 47 nM | – | 45 nM | 45.6 nM | 859 nM | 620 nM
23 | Cc1cnc(Nc2ccc(C#N)cc2)nc1Nc1c(F)cc(-c2ccsc2)cc1F | 7.1 nM | 261000 nM | 36700 | 279 nM | 185 nM | 306 nM | 1290 nM | 49.5 nM | 12 nM | – | –
24 | Cc1cnc(Nc2ccc(C#N)cc2)nc1Nc1c(F)cc(-c2ccco2)cc1F | 4.2 nM | 8100 nM | 1920 | 114 nM | 33 nM | 187 nM | 856 nM | 11.2 nM | 12 nM | – | –
25 | Cc1csc(-c2cc(C)c(Nc3ccnc(Nc4ccc(C#N)cc4)n3)c(C)c2)c1 | 11 nM | 34000 nM | 3060 | 231 nM | 50 nM | 116 nM | 941 nM | 43 nM | 56 nM | – | –
26 | Cc1cnc(Nc2ccc(C#N)cc2)nc1Nc1c(F)cc(-c2cncc(C(F)(F)F)c2)cc1F | 201 nM | 8200 nM | 41 | > 2000 nM | 631 nM | > 2000 nM | > 2000 nM | 482 nM | 857 nM | – | –
27 | Cc1cnc(Nc2ccc(C#N)cc2)nc1Nc1c(F)cc(-c2cncc(C#N)c2)cc1F | 24 nM | 50000 nM | 2080 | 1880 nM | 135 nM | 1410 nM | > 2000 nM | 86 nM | 271 nM | – | –
28 | Cc1cc(-c2ccnc(C(F)(F)F)c2)cc(C)c1Nc1ccnc(Nc2ccc(C#N)cc2)n1 | 6.6 nM | 6100 nM | 923 | 231 nM | 37 nM | 128 nM | – | 47 nM | 68.5 nM | – | –
29 | Cc1cc(-c2ccco2)cc(C)c1Nc1ccnc(Nc2ccc(C#N)cc2)n1 | 5.1 nM | 1700 nM | 335 | 51 nM | 10 nM | 28 nM | 150 nM | 14 nM | 38.1 nM | – | –
30 | Cc1cc(-c2cc(C)c(Nc3ccnc(Nc4ccc(C#N)cc4)n3)c(C)c2)cc(C)n1 | 6.2 nM | 2300 nM | 375 | 260 nM | 33 nM | 85 nM | 1840 nM | 58 nM | 66.7 nM | 1720 nM | –
